Laboratory results: PubChem BioAssay AID651717 (Broad Institute, 2012)

What follows are molecules tested on mESC Bmi1-luciferase reporter, firefly/renilla ratio, 24 h (assay: compounds raising Bmi1 reporter signal – mouse embryonic stem cells, luciferase, cherry-pick, esBAF inhibitor project, dose response (AID 651717);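 also: luciferase knocked into Bmi1 locus with EF-1a renilla as cell number control; rising ratio signals esBAF inhibition which derepresses Bmi1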).

Compound | AC40
COc1c(C(=O)NNC(=O)c2ccccc2)csc1Br | 0.646 µM
COc1ccc(Cl)cc1C(=O)Nc1ccc(Br)c(C)n1 | 6.83 µM
O=C(c1c(Cl)nc2sccn12)N(C(=O)c1c(Cl)nc2sccn12)c1ccc(Cl)cn1 | 0.693 µM
COc1ccc(Cc2nc3ccc(C(=O)NCCCSC)cc3o2)cc1OC | 4.92 µM
CC(C)CC1C(=O)N(Cc2cn(CCC3OCCCO3)nn2)CCS(=O)(=O)N1Cc1ccc(-c2ccc(Cl)nc2)cc1 (configuration not stated) | 12.9 µM
CC(=O)Nc1ccc2c(c1)Cc1c(F)cccc1-2 | 0.977 µM
COc1cccc(NC(=O)c2ccnc(N3CCC(C(=O)NCc4ccccc4OC)CC3)c2)c1 | 8.36 µM
CC(C)N1CC2(CC(c3ccccc3F)=NO2)CN1C(=O)c1ccc(C(C)(C)C)cc1 (configuration not stated) | 4.08 µM
O=S(=O)(Nc1cccc(-c2ccc(N3CCCCCC3)nn2)c1)c1ccc(C(F)(F)F)cc1 | 13.1 µM
CC(NC(=O)c1cc(COc2ccc(-n3cncn3)cc2)on1)c1ccc(F)cc1 (configuration not stated) | 5.4 µM
COc1ccc(Cl)c(-c2cc(C(=O)Nc3ccc(F)cc3)[nH]n2)c1 | 2.11 µM
CC(C)(O)c1cc2ccc(C#Cc3ccsc3)cc2c(=O)o1 | 3.42 µM
Cc1cccc(Oc2coc3cc(O)ccc3c2=O)c1 | 15.7 µM
Cc1cc(OCc2cc(C(=O)N(C)C(C)c3ccccn3)no2)cc(C)c1Cl (configuration not stated) | 14.7 µM
COc1ccc(C(=O)/C=C(\C)Nc2ccc3c(c2)OCO3)cc1 | 1.85 µM
Cc1ccc(N=Nc2cc(C)ccc2O)c(C)c1 | 3.74 µM
Cc1cc(=O)oc2cc(NC(=O)c3cccc(F)c3)ccc12 | 1.82 µM
C=CCN(C(=O)C1CC(=O)N(C2CCCC2)C1)c1nc(-c2ccc(S(C)(=O)=O)cc2)cs1 (configuration not stated) | 34.4 µM
Cc1nc(Nc2ccccc2)sc1C(=O)c1ccc(F)cc1 | 3.93 µM
CNc1oc(-c2ccc(OCc3ccccc3)cc2)nc1C#N | 24.4 µM
COc1ccc(OCc2cc(C(=O)NC(C)c3csc(C)n3)no2)c(Cl)c1 (configuration not stated) | 4.18 µM

Compound | AC40
COc1ccc(Nc2ccc3ccccc3c2)cc1 | 1.13 µM
C/C(=N\OC(=O)NC(C)C)c1sc(-c2ccccc2)nc1C | 7.63 µM
COc1ccc(OCc2cc(C(=O)NC(C)c3nc(C)cs3)no2)c(Cl)c1 (configuration not stated) | 10.4 µM
COc1cc2c(cc1OC)C(=Cc1ccc(N(C)C)cc1)C=C2 | 2.44 µM
CN(C)S(=O)(=O)c1ccc(C(=O)Nc2ccc3c(c2)CCC3)cc1 | 4.91 µM
Cc1ccc(-n2nnc(-c3cccnc3)n2)cc1 | 0.926 µM
COc1ccc(C(=O)NCCS(=O)(=O)NCCc2ccccc2)cc1 | 0.726 µM
CC(=O)N1CC2(CC(c3ccccc3F)=NO2)CN1c1ccc(Cl)cc1 (configuration not stated) | 19.9 µM
Cc1ccc(C)c(NC(=O)c2cc(-c3cc(C)c(C)cc3O)n[nH]2)c1 | 3.77 µM
CO[C@@H]1CN(C)C(=O)c2ccc(NC(=O)Nc3ccc4c(c3)OCO4)cc2OC[C@H](C)NC[C@@H]1C | 5 µM
O=C(CCNC(=O)c1ccccc1)Nc1nc2ccccc2s1 | 3.91 µM
O=C(Nc1ccc(Nc2ccccc2)cc1)Nc1ccccc1Cl | 4.5 µM
CCCCSc1nnc(-c2ccc(OC)cc2)n1C | 9.08 µM
O=C(CCN1C(=O)/C(=C/C=C/c2ccccc2)SC1=S)Nc1cccnc1 | 2.35 µM
CCN(CC)c1ccc2cc(C(=O)c3cccs3)c(=O)oc2c1 | 11.6 µM
CCC(C)(C)C1CCc2[nH]nc(C(=O)NC3CCCCC3)c2C1 (configuration not stated) | 6.44 µM
CC(C)c1ccc(CNc2ncccn2)cc1 | 2.82 µM
Cc1cccc(C)c1OCc1cc(C(=O)N2CCC(C3CCCCC3)C2)no1 (configuration not stated) | 4.72 µM
COc1cc(Cl)ccc1OCc1cc(C(=O)N(C)Cc2cccc3cnccc23)no1 | 7.79 µM
O=C(Cc1ccccc1)N/N=C/c1ccccc1OCc1ccc(Cl)cc1 | 4.61 µM
COc1ccccc1N1C(=O)S/C(=C\c2ccc(C)s2)C1=O | 1.95 µM

Compound | AC40
COc1ccc2[nH]cc(C(=O)CNc3nc(C)cs3)c2c1 | 10.3 µM
COc1ccc(C)c2sc(=NC(=O)c3cccc(N4C(=O)CCC4=O)c3)n(C)c12 | 1.81 µM
CCn1cnc2cc(NCc3ccccc3Cl)ccc21 | 3.92 µM
O=C(c1cc(COc2cccc(C(F)(F)F)c2)on1)N1CCCC1 | 17.5 µM
COc1cc(N=Nc2ccc(C(=O)N(C)C)cc2)c(C)cc1N | 8.86 µM
O=c1c2ccccc2sc2ccccc12 | 2.41 µM
CCN(CC)C(=O)Oc1ccc2c(=O)c(-c3ccc(OC)cc3)coc2c1 | 3.7 µM
CC1CCCN(C(=O)CNC(=O)c2sc3ccccc3c2Cl)C1 (configuration not stated) | 3.96 µM
CN(C)c1ccc(-c2csc(C(O)c3ccc(F)cc3)n2)cc1 (configuration not stated) | 1.63 µM
CN(CC(=O)Nc1ccccc1Br)C(=O)c1cc2c(s1)CCCCC2 | 2.75 µM
COc1ccc2nc3ccccc3[n+]([O-])c2c1 | 2.1 µM
Cc1csc(N/N=C/c2ccccc2F)n1 | 1.01 µM
O=C(COC(=O)c1cccc(S(=O)(=O)N2CCOCC2)c1)Nc1nc(-c2ccccc2Cl)cs1 | 16.2 µM
C#CCSc1nnc(-c2ccc(O)cc2)o1 | 8.15 µM
CNC(=O)c1ccc(-c2ccccc2)s1 | 5.62 µM
COc1ccc(/C=N/NC(=O)Cc2cccs2)cc1 | 8.51 µM
C=CCNc1nc(-c2ccc(O)c(C(N)=O)c2)cs1 | 6.2 µM
COc1ccc2[nH]c(=O)c(-c3nnn(-c4ccccc4)n3)cc2c1 | 11.6 µM
c1ccc(CCNc2nc3ccccc3s2)cc1 | 3.14 µM
C=CCSC1=NNC(c2ccc(C(C)(C)C)cc2)=NN1 | 8.49 µM
